29 compounds from patent US20260297070A1, “CYCLIC [COMPOUND LEFT OUT] WRN INHIBITORS” (Nimbus Wadjet, Inc., priority 2023, published 2026) can be followed below.

Some results are limits rather than exact numbers.

T1 sequence (Q14191 with tags, fused parts or gaps L1074F limits assumed): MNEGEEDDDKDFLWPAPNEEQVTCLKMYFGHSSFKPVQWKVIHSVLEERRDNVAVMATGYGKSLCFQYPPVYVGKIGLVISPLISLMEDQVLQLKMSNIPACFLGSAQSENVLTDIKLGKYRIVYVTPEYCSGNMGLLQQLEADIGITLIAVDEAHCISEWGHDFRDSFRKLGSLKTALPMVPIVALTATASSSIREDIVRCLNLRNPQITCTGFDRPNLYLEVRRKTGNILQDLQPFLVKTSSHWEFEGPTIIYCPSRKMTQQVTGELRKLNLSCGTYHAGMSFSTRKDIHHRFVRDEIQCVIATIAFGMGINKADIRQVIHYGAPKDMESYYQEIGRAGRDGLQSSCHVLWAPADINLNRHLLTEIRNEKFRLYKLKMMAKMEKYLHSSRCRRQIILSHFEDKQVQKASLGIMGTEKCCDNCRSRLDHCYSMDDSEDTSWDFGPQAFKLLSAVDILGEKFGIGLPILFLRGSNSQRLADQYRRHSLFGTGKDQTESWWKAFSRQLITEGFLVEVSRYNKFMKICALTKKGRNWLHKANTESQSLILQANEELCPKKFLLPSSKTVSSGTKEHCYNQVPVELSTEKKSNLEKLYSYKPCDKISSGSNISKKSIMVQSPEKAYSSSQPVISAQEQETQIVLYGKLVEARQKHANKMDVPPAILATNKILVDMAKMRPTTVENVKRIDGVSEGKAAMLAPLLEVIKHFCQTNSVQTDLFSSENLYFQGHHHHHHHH

This test addresses T1, human Werner helicase (WRN-BV08, Uniprot Q14191, amino acids 517-1235 with L1074F point mutation) (Homo sapiens, UniProt Q14191, L1074F).
T1 construct: Uniprot Q14191, amino acids 517-1235 with L1074F point mutation; TEV-cleavable 8×His (C, cleaved yes); made in house; host or cells: Sf9 insect cells (baculovirus)
Nature of the test: WRN (BV08) ADP-Glo Assay. The class given is biochemical. As to conditions: 0.15 nM WRN, 5 μM ATP, 0.1 nM DNA duplex, 15 min preincubation, 60 min at 25° C., pH 7.5, 1% DMSO; read-out: ADP-Glo_hWRN_IC50. In a few lines:
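Untagged WRN (Sf9-expressed, TEV-cleaved) at 0.15 nM was preincubated 15 min at 25 °C with compound, then reacted 60 min at 25 °C with 5 μM ATP and 0.1 nM DNA duplex in Bicine pH 7.5, 1 mM MgCl2. ADP-Glo luminescence gave % inhibition; IC50 by four-parameter fit.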
For `O=C(Cn1cc(-c2ccc(F)c(F)c2)cn1)N(Cc1ccnc(N2CCOCC2)c1)C1C=CS(=O)(=O)C1` (centres unmarked) [I-759, 2-[4-(3,4-difluorophenyl)-1H-pyrazol-1-yl]-N-(1,1-dioxo-2,3-dihydro-1lambda6-thiophen-3-yl)-N-{[2-(morpholin-4-yl)pyridin-4-yl]methyl}acetamide], the IC50 lay within 0.5 to 5 µM.
As for `COC(C(=O)N(Cc1ccnc(C(C)(C)O)c1)C1C=CS(=O)(=O)C1)c1ccc(-c2ccc(F)cc2)cc1F` (single isomer, unassigned) [I-10, (2R*)-2-{3,4′-difluoro-[1,1′-biphenyl]-4-yl}-N-[(3R**)-1,1-dioxo-2,3-dihydro-1lambda6-thiophen-3-yl]-N-{[2-(2-hydroxypropan-2-yl)pyridin-4-yl]methyl}-2-methoxyacetamide], the IC50 was below 0.5 µM.
Under `COc1cc(CN(C(=O)Cc2ccc(-n3cccc3C)cc2F)C2C=CS(=O)(=O)C2)ccn1` (centres unmarked) [I-69, N-(1,1-dioxo-2,3-dihydro-1lambda6-thiophen-3-yl)-2-[2-fluoro-4-(2-methyl-1H-pyrrol-1-yl)phenyl]-N-[(2-methoxypyridin-4-yl)methyl]acetamide] stands below 0.5 µM; under `O=C(Cc1ccc(-n2cccc2)cc1)N(Cc1cccc(Cl)c1)C1C=CS(=O)(=O)C1` (centres unmarked) [I-201, N-[(3-chlorophenyl)methyl]-N-(1,1-dioxo-2,3-dihydro-1lambda6-thiophen-3-yl)-2-[4-(1H-pyrrol-1-yl)phenyl]acetamide], 0.5 to 5 µM; under `Cc1cccn1-c1ccc(CC(=O)N(Cc2ccnc(OCC(F)(F)F)c2)C2C=CS(=O)(=O)C2)c(F)c1` (centres unmarked) [I-67, N-(1,1-dioxo-2,3-dihydro-1lambda6-thiophen-3-yl)-2-[2-fluoro-4-(2-methyl-1H-pyrrol-1-yl)phenyl]-N-{[2-(2,2,2-trifluoroethoxy)pyridin-4-yl]methyl}acetamide], below 0.5 µM.
Under `O=C(Cn1cnc(-c2ccccc2)cc1=O)N(Cc1ccncc1)C1C=CS(=O)(=O)C1` (centres unmarked) [I-325, N-(1,1-dioxo-2,3-dihydro-1lambda6-thiophen-3-yl)-2-(6-oxo-4-phenyl-1,6-dihydropyrimidin-1-yl)-N-[(pyridin-4-yl)methyl]acetamide] stands 10 to 50 µM; under `O=C(C1CC(Cc2ccccc2)=NO1)N(Cc1ccncc1)C1C=CS(=O)(=O)C1` (centres unmarked) [I-579, 3-benzyl-N-(1,1-dioxo-2,3-dihydro-1lambda6-thiophen-3-yl)-N-[(pyridin-4-yl)methyl]-4,5-dihydro-1,2-oxazole-5-carboxamide], above 50 µM.
Under `Cc1ccc(-c2ccc(C(C(=O)N(C)C)C(=O)N(Cc3ccncc3)C3C=CS(=O)(=O)C3)cc2)cc1` (centres unmarked) [I-277, N-(1,1-dioxo-2,3-dihydro-1lambda6-thiophen-3-yl)-N′,N′-dimethyl-2-{4′-methyl-[1,1′-biphenyl]-4-yl}-N-[(pyridin-4-yl)methyl]propanediamide] stands 5 to 10 µM.
As to `CC(C)(O)c1cc(CN(C(=O)C(OCCC(F)(F)F)c2ccc(-c3ccc(F)c(F)c3)cc2F)[C@@H]2C=CS(=O)(=O)C2)ccn1` (single isomer, unassigned) [I-790], the IC50 was in the range of 0.5 to 5 µM.
Under `O=C(Cc1ccc2cc[nH]c2c1)N(Cc1ccncc1)C1C=CS(=O)(=O)C1` (centres unmarked) [I-506, N-(1,1-dioxo-2,3-dihydro-1lambda6-thiophen-3-yl)-2-(1H-indol-6-yl)-N-[(pyridin-4-yl)methyl]acetamide] stands above 50 µM; under `COc1cc(-c2ccc(F)cc2)ccc1CC(=O)N(Cc1ccncc1)C1C=CS(=O)(=O)C1` (centres unmarked) [I-345, N-(1,1-dioxo-2,3-dihydro-1lambda6-thiophen-3-yl)-2-{4′-fluoro-3-methoxy-[1,1′-biphenyl]-4-yl}-N-[(pyridin-4-yl)methyl]acetamide], 10 to 50 µM; under `COc1cc(CN(C(=O)C2Cc3cc(-n4cccc4C)ccc3O2)C2C=CS(=O)(=O)C2)ccn1` (centres unmarked) [I-109, N-(1,1-dioxido-2,3-dihydrothiophen-3-yl)-N-((2-methoxypyridin-4-yl)methyl)-5-(2-methyl-1H-pyrrol-1-yl)-2,3-dihydrobenzofuran-2-carboxamide], 0.5 to 5 µM.
Under `COc1ccc2cc(CC(=O)N(Cc3ccncc3)C3C=CS(=O)(=O)C3)ccc2c1` (centres unmarked) [I-511, N-(1,1-dioxo-2,3-dihydro-1lambda6-thiophen-3-yl)-2-(6-methoxynaphthalen-2-yl)-N-[(pyridin-4-yl)methyl]acetamide] stands above 50 µM; under `O=C(Cc1ccc(-c2ccccc2)cc1)N(Cc1ccncc1)C1C=CS(=O)(=O)C1` (centres unmarked) [I-323, 2-{[1,1′-biphenyl]-4-yl}-N-(1,1-dioxo-2,3-dihydro-1lambda6-thiophen-3-yl)-N-[(pyridin-4-yl)methyl]acetamide], 10 to 50 µM.
The figure for `O=C1CCCN1c1ccc(CC(=O)N(Cc2ccncc2)C2C=CS(=O)(=O)C2)cc1` (centres unmarked) [I-444, N-(1,1-dioxo-2,3-dihydro-1lambda6-thiophen-3-yl)-2-[4-(2-oxopyrrolidin-1-yl)phenyl]-N-[(pyridin-4-yl)methyl]acetamide] is above 50 µM.
For the compound `O=C([C@@H]1[C@H]2C[C@]1(c1cccc(F)c1)CO2)N(Cc1ccncc1)C1C=CS(=O)(=O)C1` (mixture of isomers) [I-715, rac-(1R,4S,5S)-N-(1,1-dioxo-2,3-dihydro-1lambda6-thiophen-3-yl)-4-(3-fluorophenyl)-N-[(pyridin-4-yl)methyl]-2-oxabicyclo[2.1.1]hexane-5-carboxamide], the IC50 is above 50 µM.
The figure for `O=C(Cc1ccc(-c2ccc(F)c(F)c2)cc1)N(Cc1ccncc1)C1C=CS(=O)(=O)C1` (centres unmarked) [I-143, 2-{3′,4′-difluoro-[1,1′-biphenyl]-4-yl}-N-(1,1-dioxo-2,3-dihydro-1lambda6-thiophen-3-yl)-N-[(pyridin-4-yl)methyl]acetamide] is 0.5 to 5 µM; for `CNC(=O)C(C(=O)N(Cc1ccnc(OC)c1)[C@@H]1C=CS(=O)(=O)C1)c1ccc(-c2ccc(F)c(F)c2)cc1F` (stereo partly drawn) [I-688, N′-[(3R)-1,1-dioxo-2,3-dihydro-1lambda6-thiophen-3-yl]-N′-[(2-methoxypyridin-4-yl)methyl]-N-methyl-2-{3,3′,4′-trifluoro-[1,1′-biphenyl]-4-yl}propanediamide] it is below 0.5 µM.
Under `O=C(Cn1cc(-c2ccccc2)cn1)N(Cc1ccncc1)C1C=CS(=O)(=O)C1` (single isomer, unassigned) [I-281] stands 10 to 50 µM; under `O=C(CCCc1c[nH]c2ccccc12)N(Cc1ccncc1)C1C=CS(=O)(=O)C1` (centres unmarked) [I-500, N-(1,1-dioxo-2,3-dihydro-1lambda6-thiophen-3-yl)-4-(1H-indol-3-yl)-N-[(pyridin-4-yl)methyl]butanamide], above 50 µM; under `CN(C)C(=O)C(C(=O)N(Cc1ccncc1)C1C=CS(=O)(=O)C1)c1ccc(-c2ccc(F)cc2)cc1` (single isomer, unassigned) [I-374, (2R**)-N′-[(3R*)-1,1-dioxo-2,3-dihydro-1lambda6-thiophen-3-yl]-2-{4′-fluoro-[1,1′-biphenyl]-4-yl}-N,N-dimethyl-N′-[(pyridin-4-yl)methyl]propanediamide], above 50 µM.
The figure for `O=C(C1Cc2cc(-n3cccc3)ccc21)N(Cc1ccncc1)C1C=CS(=O)(=O)C1` (centres unmarked) [I-233, N-(1,1-dioxido-2,3-dihydrothiophen-3-yl)-N-(pyridin-4-ylmethyl)-3-(1H-pyrrol-1-yl)bicyclo[4.2.0]octa-1(6),2,4-triene-7-carboxamide] is 5 to 10 µM; for `COc1cc(CN(C(=O)C(c2ccc(-c3ccc(F)c(F)c3)cc2F)n2cc(OC(F)F)cn2)[C@@H]2C=CS(=O)(=O)C2)ccn1` (stereo partly drawn) [I-695, 2-[4-(difluoromethoxy)-1H-pyrazol-1-yl]-N-[(3R)-1,1-dioxo-2,3-dihydro-1lambda6-thiophen-3-yl]-N-[(2-methoxypyridin-4-yl)methyl]-2-{3,3′,4′-trifluoro-[1,1′-biphenyl]-4-yl}acetamide] it is below 0.5 µM.
For `O=C(Cc1ccc(-n2cccc2)cc1)N(Cc1cccc(B(O)O)c1)C1C=CS(=O)(=O)C1` (centres unmarked) [I-314, (3-{[N-(1,1-dioxo-2,3-dihydro-1lambda6-thiophen-3-yl)-2-[4-(1H-pyrrol-1-yl)phenyl]acetamido]methyl}phenyl)boronic acid], the IC50 lay within 10 to 50 µM.
For `CN(C)c1cc(CN(C(=O)Cc2ccc(S(F)(F)(F)(F)F)cc2)C2C=CS(=O)(=O)C2)ccn1` (centres unmarked) [I-89, N-{[2-(dimethylamino)pyridin-4-yl]methyl}-N-(1,1-dioxo-2,3-dihydro-1lambda6-thiophen-3-yl)-2-[4-(pentafluoro-lambda6-sulfanyl)phenyl]acetamide], the IC50 fell in the range of 0.5 to 5 µM.
As to `O=C(CCc1cccc(OC(F)(F)F)c1)N(Cc1ccncc1)C1C=CS(=O)(=O)C1` (centres unmarked) [I-508, N-(1,1-dioxo-2,3-dihydro-1lambda6-thiophen-3-yl)-N-[(pyridin-4-yl)methyl]-3-[3-(trifluoromethoxy)phenyl]propanamide], the IC50 is above 50 µM.
As to `CC(C)(O)c1cc(CN(C(=O)Cn2ncc(-c3ccc(F)c(F)c3)cc2=O)C2C=CS(=O)(=O)C2)ccn1` (single isomer, unassigned) [I-767], the IC50 was below 0.5 µM.
Take `O=C(c1cnn(Cc2ccccc2)c1)N(Cc1ccncc1)C1C=CS(=O)(=O)C1` (centres unmarked) [I-538, 1-benzyl-N-(1,1-dioxo-2,3-dihydro-1lambda6-thiophen-3-yl)-N-[(pyridin-4-yl)methyl]-1H-pyrazole-4-carboxamide]: the IC50 was above 50 µM.
Under `COc1cc(CN(C(=O)Cc2c(F)cc(-c3ccc(F)cc3)cc2F)C2C=CS(=O)(=O)C2)ccn1` (centres unmarked) [I-168, N-(1,1-dioxo-2,3-dihydro-1lambda6-thiophen-3-yl)-N-[(2-methoxypyridin-4-yl)methyl]-2-{3,4′,5-trifluoro-[1,1′-biphenyl]-4-yl}acetamide] stands 0.5 to 5 µM.
